For the assay, the system named is HT29 intrarenal xenograft, nude mice, tumor weight change. The assay is described as follows: NCI In Vivo Anticancer Drug Screen. Data for tumor model HT29;CX-1 Human Adenocarcinoma (MER+) (intrarenal inoculation) in NU/NU BALB/C (nude) mice. The note with it: endpoint: mean tumor weight change, higher = larger tumour. Here is the method:
The antitumor activity of compounds was measured in mice bearing transplantable tumors. Survival or tumor size were measured and the results are expressed as the measurement made in the treated group (T) divided by the measurement made in the vehicle treated control group (C). The tumor model used in this assay is HT29;CX-1 Human Adenocarcinoma (MER+) (intrarenal inoculation) in NU/NU BALB/C (nude) mice

The mark [1] stands for this setting: dose: 150.0 mg/kg/injection, schedule: Q04DX004 (sc), vehicle: saline.
The mark [2] stands for this setting: dose: 300.0 mg/kg/injection, schedule: Q04DX004 (sc), vehicle: saline.
[3] abbreviates: dose: 600.0 mg/kg/injection, schedule: Q04DX004 (sc), vehicle: saline.
The mark [4] stands for this setting: dose: 75.0 mg/kg/injection, schedule: Q04DX004 (sc), vehicle: saline.
[5] abbreviates: dose: 150.0 mg/kg/injection, schedule: Q04DX004 (sc), vehicle: saline with Tween-80.
The mark [6] stands for this setting: dose: 300.0 mg/kg/injection, schedule: Q04DX004 (sc), vehicle: saline with Tween-80.
Setting [7] is: dose: 600.0 mg/kg/injection, schedule: Q04DX004 (sc), vehicle: saline with Tween-80.
[8] abbreviates: dose: 1200.0 mg/kg/injection, schedule: Q04DX004 (sc), vehicle: saline with Tween-80.
Where [9] appears, read: dose: 150.0 mg/kg/injection, schedule: Q04DX004 (ip), vehicle: DMSO.
[10] abbreviates: dose: 300.0 mg/kg/injection, schedule: Q04DX004 (ip), vehicle: DMSO.

This note sets out measurements from PubChem BioAssay AID208 (DTP/NCI, 2004).

Molecules are shown by their SMILES. Where “and” joins values, the source holds several entries; their conditions need not be identical. Equal entries are not always repeated. Records with an inconclusive call do not appear.

With `C1OC1CO[C@@H]1CO[C@H]2[C@@H]1OC[C@H]2OCC1CO1` (some centres undefined), the T/C is 121 % of control (dose: 50.0 mg/kg/injection, schedule: Q01DX010 (sc), vehicle: saline with Tween-80); 64 % of control (dose: 100.0 mg/kg/injection, schedule: Q01DX010 (sc), vehicle: saline with Tween-80); 103 % of control (dose: 200.0 mg/kg/injection, schedule: Q01DX010 (sc), vehicle: saline with Tween-80).

For `CCC1=C[C@H]2CN(CCc3c([nH]c4ccccc34)[C@@](C(=O)OC)(c3cc4c(cc3OC)N(C)[C@H]3[C@@](O)(C(=O)NC)[C@H](OC(C)=O)[C@]5(CC)C=CCN6CC[C@]43[C@@H]65)C2)C1`, the T/C was -17 % of control and 8 % of control (dose: 2.0 mg/kg/injection, schedule: Q04DX004 (sc), vehicle: water); -99 % of control (dose: 4.0 mg/kg/injection, schedule: Q04DX004 (sc), vehicle: water).

For the molecule `CC(C)C(N)C(=O)Nc1nncs1` (centres undefined), the T/C by setting is: under setting [1], 94 % of control; under setting [2], 74 % of control; under setting [3], 68 % of control.

For `CCn1cnc2c(=S)nc[nH]c21`, under setting [1], the T/C is 175 % of control.

Turning to `O=C(O)CCCc1ccc(N(CCCl)CCCl)cc1`, the T/C by setting is: (dose: 0.13 mg/kg/injection, schedule: Q04DX004 (ip), vehicle: Klucel (hydroxypropylcellulose) (HPC)) 70 % of control; (dose: 0.2 mg/kg/injection, schedule: Q04DX004 (ip), vehicle: Klucel (hydroxypropylcellulose) (HPC)) 77 % of control; (dose: 0.3 mg/kg/injection, schedule: Q04DX004 (ip), vehicle: Klucel (hydroxypropylcellulose) (HPC)) 35 % of control; (dose: 40.0 mg/kg/injection, schedule: Q04DX004 (ip), vehicle: Klucel (hydroxypropylcellulose) (HPC)) 54 % of control.

For `C=C(NC(=O)C(=C)NC(=O)c1csc(C2=NC3c4csc(n4)C4NC(=O)c5csc(n5)C(C(C)(O)C(C)O)NC(=O)C5CSC(=N5)/C(=C/C)NC(=O)C(C(C)O)NC(=O)c5csc(n5)C3(CC2)NC(=O)C(C)NC(=O)C(=C)NC(=O)C(C)NC(=O)C(C(C)CC)NC2C=Cc3c(C(C)O)cc(nc3C2O)C(=O)OC4C)n1)C(N)=O` (centres undefined), the T/C (dose: 400.0 mg/kg/injection, schedule: Q01DX010 (sc), vehicle: Klucel (hydroxypropylcellulose) (HPC)) is 81 % of control; the T/C (dose: 800.0 mg/kg/injection, schedule: Q01DX010 (sc), vehicle: Klucel (hydroxypropylcellulose) (HPC)) is 96 % of control; the T/C (dose: 1600.0 mg/kg/injection, schedule: Q01DX010 (sc), vehicle: Klucel (hydroxypropylcellulose) (HPC)) was 44 % of control; the T/C (dose: 2400.0 mg/kg/injection, schedule: Q01DX010 (sc), vehicle: Klucel (hydroxypropylcellulose) (HPC)) was 71 % of control.

Regarding `Cn1c(=O)[nH]c2nncnc2c1=O`, the T/C (dose: 60.0 mg/kg/injection, schedule: Q04DX004 (sc), vehicle: water) was 124 % of control.

For the molecule `COc1cc(Cc2nccc3cc(OC)c(OC)cc23)c(C(C)=O)cc1OC`, the T/C under setting [4] was 86 % of control, the T/C under setting [1] is 84 % of control, the T/C under setting [2] is 55 % of control and the T/C under setting [3] is 33 % of control.

On to `Nc1nc(N)c(N=O)c(Nc2ccc(Br)cc2)n1`, for which the T/C reads like this: under setting [5], 106 % of control; under setting [6], 83 % of control; under setting [7], 120 % of control; under setting [8], 115 % of control.

Take `C[C@@H]1C[C@@H]([C@H](O)CC2CC(=O)NC(=O)C2)C(=O)[C@@H](C)C1`: under setting [4], the T/C is 43 % of control.

For the molecule `O=C1N[C@@H]2C(=C[C@H](O)[C@@H](O)[C@H]2O)c2cc3c(c(O)c21)OCO3`, the T/C (dose: 5.0 mg/kg/injection, schedule: Q04DX004 (sc), vehicle: saline with Tween-80) is 177 % of control.

As to `CC(=O)OC(C)C1C2=C(C(=O)CC1(C)O)C(=O)c1c(ccc(-c3ccc4c(c3O)C(=O)C3=C(C4=O)C(C(C)OC(C)=O)C(C)(O)CC3=O)c1O)C2=O` (centres undefined), the T/C (dose: 0.94 mg/kg/injection, schedule: Q04DX004 (ip), vehicle: saline with Tween-80) is 94 % of control; the T/C (dose: 1.9 mg/kg/injection, schedule: Q04DX004 (ip), vehicle: saline with Tween-80) is 92 % of control; the T/C (dose: 3.75 mg/kg/injection, schedule: Q04DX004 (ip), vehicle: saline with Tween-80) is 88 % of control; the T/C (dose: 7.5 mg/kg/injection, schedule: Q04DX004 (ip), vehicle: saline with Tween-80) is 101 % of control; the T/C (dose: 30.0 mg/kg/injection, schedule: Q04DX004 (ip), vehicle: saline with Tween-80) was 162 % of control.

Regarding `O=C(CCCCCCC(=O)ON1C(=O)CCC1=O)ON1C(=O)CCC1=O`, the T/C under setting [5] was 25 % of control, the T/C under setting [6] is 50 % of control, the T/C under setting [7] is 93 % of control and the T/C under setting [8] was 77 % of control.

For `CCOC(=O)c1ccc(NC(=O)Nc2nncs2)cc1`, the T/C (dose: 100.0 mg/kg/injection, schedule: Q01DX010 (sc), vehicle: distilled water + Tween-80) is 52 % of control; the T/C (dose: 200.0 mg/kg/injection, schedule: Q01DX010 (sc), vehicle: distilled water + Tween-80) was 69 % of control; the T/C (dose: 800.0 mg/kg/injection, schedule: Q01DX010 (sc), vehicle: distilled water + Tween-80) is 84 % of control.

`NC(CNC(=O)CBr)C(=O)O` (centres undefined): the T/C reads like this: (dose: 37.5 mg/kg/injection, schedule: Q04DX004 (sc), vehicle: water) 106 % of control; (dose: 75.0 mg/kg/injection, schedule: Q04DX004 (sc), vehicle: water) 96 % of control; (dose: 150.0 mg/kg/injection, schedule: Q04DX004 (sc), vehicle: water) 43 % of control.

For the molecule `O=C(O)[C@H](Cc1ccccc1)N1C(=O)c2ccccc2C1=O`, the T/C reads like this: under setting [9], 180 % of control; under setting [10], 97 % of control.

On to `CCCCNc1ccc2nnc(C)n2n1`, for which the T/C is, setting by setting: under setting [9], 116 % of control; (dose: 150.0 mg/kg/injection, schedule: Q04DX004 (ip), vehicle: sodium bicarbonate) 86 % of control.

With `CN(C)/N=N/c1nc[nH]c1C(N)=O`, the T/C reads like this: (dose: 100.0 mg/kg/injection, schedule: Q04DX004 (ip), vehicle: saline) 157 % of control; (dose: 150.0 mg/kg/injection, schedule: Q04DX004 (ip), vehicle: saline) 75 % of control.

For the molecule `O=P1(NCCCl)OCCCN1CCCl` (centres undefined), the T/C under setting [4] is 68 % of control.

`Nc1ccc(S(=O)(=O)Nc2cnc3c(Cl)cccc3n2)cc1`: the T/C under setting [10] is 85 % of control.

Take `O=Cc1ccc(C=O)c(Cl)c1`: the T/C by setting is: (dose: 150.0 mg/kg/injection, schedule: Q04DX004 (sc), vehicle: Klucel (hydroxypropylcellulose) (HPC)) 92 % of control; (dose: 300.0 mg/kg/injection, schedule: Q04DX004 (sc), vehicle: Klucel (hydroxypropylcellulose) (HPC)) 81 % of control; (dose: 600.0 mg/kg/injection, schedule: Q04DX004 (sc), vehicle: Klucel (hydroxypropylcellulose) (HPC)) 109 % of control; (dose: 1200.0 mg/kg/injection, schedule: Q04DX004 (sc), vehicle: Klucel (hydroxypropylcellulose) (HPC)) 114 % of control.

For the molecule `COC1(OC)C2C=CC1CC2`, the T/C is 114 % of control under setting [5], 72 % of control under setting [6], 123 % of control under setting [7] and 197 % of control under setting [8].

In the case of `O=[N+]([O-])c1nccn1CC(O)CO` (centres undefined), the T/C by setting is: under setting [2], 86 % of control; (dose: 1200.0 mg/kg/injection, schedule: Q04DX004 (sc), vehicle: saline) 81 % of control; (dose: 2400.0 mg/kg/injection, schedule: Q04DX004 (sc), vehicle: saline) 112 % of control.

`COc1cc2c(ccc3c4cc(OC)c(OC)cc4c[n+](C)c23)cc1O`: the T/C reads like this: under setting [4], 49 % of control; under setting [1], 42 % of control; under setting [2], 51 % of control; under setting [3], 75 % of control.

Take `O=C1C2CC(Cl)C(SSC3CC4C(=O)N(SC(Cl)(Cl)C(Cl)Cl)C(=O)C4CC3Cl)CC2C(=O)N1SC(Cl)(Cl)C(Cl)Cl` (centres undefined): the T/C was 56 % of control (dose: 75.0 mg/kg/injection, schedule: Q04DX004 (ip), vehicle: Klucel (hydroxypropylcellulose) (HPC)); 58 % of control (dose: 150.0 mg/kg/injection, schedule: Q04DX004 (ip), vehicle: Klucel (hydroxypropylcellulose) (HPC)); 39 % of control (dose: 300.0 mg/kg/injection, schedule: Q04DX004 (ip), vehicle: Klucel (hydroxypropylcellulose) (HPC)); 35 % of control (dose: 600.0 mg/kg/injection, schedule: Q04DX004 (ip), vehicle: Klucel (hydroxypropylcellulose) (HPC)).

On to `Cn1ccc(=Nc2ccc(NC(=O)c3ccc(N=c4ccn(C)c5ccc([N+](=O)[O-])cc45)cc3[N+](=O)[O-])cc2)cc1`, for which the T/C is, setting by setting: under setting [6], 102 % of control; under setting [7], 104 % of control; under setting [8], 164 % of control; (dose: 2400.0 mg/kg/injection, schedule: Q04DX004 (sc), vehicle: saline with Tween-80) 156 % of control.
